Assay results from publication PMC11811690 (Angewandte Chemie (International Ed. in English), 2024).
In brackets after ≈: the same amount, converted by molar mass. Like-named read-outs stand apart in the source and are kept apart here.

Tests used:
Assay in all cases: microbe, parasite or virus in culture
[1] = tested on: M. tuberculosis H37Rv poly-g-GFP; assay type: cell-based; conditions: Mycobacterium tuberculosis, 336 h, read-out: MIC Mtb H37Rv-poly-g-GFP, turbidity read-out
[2] = tested on: M. tuberculosis H37Rv poly-g-GFP; assay type: cell-based; conditions: Mycobacterium tuberculosis, H37RV, 240 h, read-out: IC90 Mtb H37Rv-poly-g-GFP, fluorescence read-out
C. difficile 630 = assay type: cell-based, Clostridioides difficile; conditions: Clostridioides difficile; C. difficile 630, anaerobic, overnight, growth suppressed to OD600 < 0.15; read-out: MIC C. difficile

CO[C@H]1/C=C/O[C@@]2(C)Oc3c(C)c(O)c4c(O)c(c(/C=N/N5CCN(C)CC5)c(O)c4c3C2=O)NC(=O)/C(C)=C\C=C\[C@H](C)[C@H](O)[C@@H](C)[C@@H](O)[C@@H](C)[C@H](OC(C)=O)[C@@H]1C [Rif, Rifampicin, reference compound]
MIC [1]: < 0.12 µg/mL

CC[C@H]1/C=C(\C)[C@@H](O)C/C=C/C=C(\CN2CCN(c3ccccc3)CC2)C(=O)O[C@H]([C@@H](C)O)C/C=C(C)/C=C(\C)[C@@H]1O[C@@H]1OC(C)(C)[C@@H](OC(=O)C(C)C)[C@H](O)[C@@H]1O [compound 2]
IC90 [2]: 16 µg/mL (≈ 19.8 µM) | MIC (C. difficile 630): > 32 µg/mL

CC[C@H]1/C=C(\C)[C@@H](O)C/C=C/C=C(\CN2CCN(c3ccncc3)CC2)C(=O)O[C@H]([C@@H](C)O)C/C=C(C)/C=C(\C)[C@@H]1O[C@@H]1OC(C)(C)[C@@H](OC(=O)C(C)C)[C@H](O)[C@@H]1O [compound 3]
IC90 [2]: 16 µg/mL (≈ 19.8 µM)

CC[C@H]1/C=C(\C)[C@@H](O)C/C=C/C=C(\CN2CCN(CCOc3ncccn3)CC2)C(=O)O[C@H]([C@@H](C)O)C/C=C(C)/C=C(\C)[C@@H]1O[C@@H]1OC(C)(C)[C@@H](OC(=O)C(C)C)[C@H](O)[C@@H]1O [compound 4]
IC90 [2]: > 64 µg/mL

CC[C@H]1/C=C(\C)[C@@H](O)C/C=C/C=C(\CN2CCN(Cc3ccc(F)cc3)CC2)C(=O)O[C@H]([C@@H](C)O)C/C=C(C)/C=C(\C)[C@@H]1O[C@@H]1OC(C)(C)[C@@H](OC(=O)C(C)C)[C@H](O)[C@@H]1O [compound 6]
IC90 [2]: 16 µg/mL (≈ 19 µM) | MIC (C. difficile 630): 16 µg/mL (≈ 19 µM)

CC[C@H]1/C=C(\C)[C@@H](O)C/C=C/C=C(\CN(C)Cc2nnc(-c3ccccc3)o2)C(=O)O[C@H]([C@@H](C)O)C/C=C(C)/C=C(\C)[C@@H]1O[C@@H]1OC(C)(C)[C@@H](OC(=O)C(C)C)[C@H](O)[C@@H]1O [compound 7]
IC90 [2]: 8 µg/mL (≈ 9.57 µM) | MIC [1]: 8 µg/mL (≈ 9.57 µM) | MIC (C. difficile 630): 16 µg/mL (≈ 19.1 µM)

CC[C@H]1/C=C(\C)[C@@H](O)C/C=C/C=C(\CNc2nc3ccccc3s2)C(=O)O[C@H]([C@@H](C)O)C/C=C(C)/C=C(\C)[C@@H]1O[C@@H]1OC(C)(C)[C@@H](OC(=O)C(C)C)[C@H](O)[C@@H]1O [compound 9]
IC90 [2]: 8 µg/mL (≈ 10 µM) | MIC [1]: 4 to 8 µg/mL (≈ 5.02 to 10 µM) | MIC (C. difficile 630): 2 µg/mL (≈ 2.51 µM)

CC[C@H]1/C=C(\C)[C@@H](O)C/C=C/C=C(\CNc2nc3c(s2)CCCC3)C(=O)O[C@H]([C@@H](C)O)C/C=C(C)/C=C(\C)[C@@H]1O[C@@H]1OC(C)(C)[C@@H](OC(=O)C(C)C)[C@H](O)[C@@H]1O [compound 11]
IC90 [2]: 16 µg/mL (≈ 20 µM) | MIC (C. difficile 630): 8 to 16 µg/mL (≈ 9.99 to 20 µM)

CC[C@H]1/C=C(\C)[C@@H](O)C/C=C/C=C(\CNc2nc3c(s2)CN(C)CC3)C(=O)O[C@H]([C@@H](C)O)C/C=C(C)/C=C(\C)[C@@H]1O[C@@H]1OC(C)(C)[C@@H](OC(=O)C(C)C)[C@H](O)[C@@H]1O [compound 12]
IC90 [2]: 32 µg/mL (≈ 39.2 µM)

CC[C@H]1/C=C(\C)[C@@H](O)C/C=C/C=C(\CNCc2nc3ccccc3s2)C(=O)O[C@H]([C@@H](C)O)C/C=C(C)/C=C(\C)[C@@H]1O[C@@H]1OC(C)(C)[C@@H](OC(=O)C(C)C)[C@H](O)[C@@H]1O [compound 14]
IC90 [2]: 16 µg/mL (≈ 19.7 µM) | MIC (C. difficile 630): > 32 µg/mL

CC[C@H]1/C=C(\C)[C@@H](O)C/C=C/C=C(\CNCc2cc(-c3ccccc3)no2)C(=O)O[C@H]([C@@H](C)O)C/C=C(C)/C=C(\C)[C@@H]1O[C@@H]1OC(C)(C)[C@@H](OC(=O)C(C)C)[C@H](O)[C@@H]1O [compound 15]
IC90 [2]: 16 µg/mL (≈ 19.5 µM)

CC[C@H]1/C=C(\C)[C@@H](O)C/C=C/C=C(\CNCc2nnc(-c3cc(Cl)cc(Cl)c3O)o2)C(=O)O[C@H]([C@@H](C)O)C/C=C(C)/C=C(\C)[C@@H]1O[C@@H]1OC(C)(C)[C@@H](OC(=O)C(C)C)[C@H](O)[C@@H]1O [compound 17]
IC90 [2]: 32 µg/mL (≈ 35.3 µM) | MIC (C. difficile 630): 2 µg/mL (≈ 2.21 µM)

CC[C@H]1/C=C(\C)[C@@H](O)C/C=C/C=C(\CNCc2nnc(C)o2)C(=O)O[C@H]([C@@H](C)O)C/C=C(C)/C=C(\C)[C@@H]1O[C@@H]1OC(C)(C)[C@@H](OC(=O)C(C)C)[C@H](O)[C@@H]1O [compound 19]
IC90 [2]: 16 µg/mL (≈ 21.1 µM) | MIC (C. difficile 630): 32 µg/mL (≈ 42.1 µM)

CC[C@H]1/C=C(\C)[C@@H](O)C/C=C/C=C(\CNCc2nnc(-c3cccc(O)c3O)o2)C(=O)O[C@H]([C@@H](C)O)C/C=C(C)/C=C(\C)[C@@H]1O[C@@H]1OC(C)(C)[C@@H](OC(=O)C(C)C)[C@H](O)[C@@H]1O [compound 22]
IC90 [2]: 4 µg/mL (≈ 4.68 µM) | MIC [1]: 2 µg/mL (≈ 2.34 µM) | MIC (C. difficile 630): 8 µg/mL (≈ 9.37 µM)

CC[C@H]1/C=C(\C)[C@@H](O)C/C=C/C=C(\CNCc2nnc(-c3ccc(C(F)(F)F)cc3)o2)C(=O)O[C@H]([C@@H](C)O)C/C=C(C)/C=C(\C)[C@@H]1O[C@@H]1OC(C)(C)[C@@H](OC(=O)C(C)C)[C@H](O)[C@@H]1O [compound 23]
IC90 ([2]; concentration for 90 % inhibition of fluorescence as proxy for growth inhibition, 10 days, 37 °C): 8 µg/mL (≈ 8.99 µM) | MIC ([1]; 14 days, 37 °C, turbidity by eye): 2 µg/mL (≈ 2.25 µM) | MIC (C. difficile 630): 4 µg/mL (≈ 4.49 µM)
